From ChEMBL document CHEMBL1146613, “Novel inhibitors of procollagen C-terminal proteinase. Part 1: diamino Acid hydroxamates” (Bioorg Med Chem Lett, 2003)
pKi: −log10 of the molar value.

Each compound was assayed against T1, Bone morphogenetic protein 1 (Homo sapiens, UniProt P13497) (assay: In vitro inhibitory activity against procollagen C-terminal proteinase (PCP) in HT1080 cells using synthetic peptide as substrate).
T1 sequence (P13497 whole entry): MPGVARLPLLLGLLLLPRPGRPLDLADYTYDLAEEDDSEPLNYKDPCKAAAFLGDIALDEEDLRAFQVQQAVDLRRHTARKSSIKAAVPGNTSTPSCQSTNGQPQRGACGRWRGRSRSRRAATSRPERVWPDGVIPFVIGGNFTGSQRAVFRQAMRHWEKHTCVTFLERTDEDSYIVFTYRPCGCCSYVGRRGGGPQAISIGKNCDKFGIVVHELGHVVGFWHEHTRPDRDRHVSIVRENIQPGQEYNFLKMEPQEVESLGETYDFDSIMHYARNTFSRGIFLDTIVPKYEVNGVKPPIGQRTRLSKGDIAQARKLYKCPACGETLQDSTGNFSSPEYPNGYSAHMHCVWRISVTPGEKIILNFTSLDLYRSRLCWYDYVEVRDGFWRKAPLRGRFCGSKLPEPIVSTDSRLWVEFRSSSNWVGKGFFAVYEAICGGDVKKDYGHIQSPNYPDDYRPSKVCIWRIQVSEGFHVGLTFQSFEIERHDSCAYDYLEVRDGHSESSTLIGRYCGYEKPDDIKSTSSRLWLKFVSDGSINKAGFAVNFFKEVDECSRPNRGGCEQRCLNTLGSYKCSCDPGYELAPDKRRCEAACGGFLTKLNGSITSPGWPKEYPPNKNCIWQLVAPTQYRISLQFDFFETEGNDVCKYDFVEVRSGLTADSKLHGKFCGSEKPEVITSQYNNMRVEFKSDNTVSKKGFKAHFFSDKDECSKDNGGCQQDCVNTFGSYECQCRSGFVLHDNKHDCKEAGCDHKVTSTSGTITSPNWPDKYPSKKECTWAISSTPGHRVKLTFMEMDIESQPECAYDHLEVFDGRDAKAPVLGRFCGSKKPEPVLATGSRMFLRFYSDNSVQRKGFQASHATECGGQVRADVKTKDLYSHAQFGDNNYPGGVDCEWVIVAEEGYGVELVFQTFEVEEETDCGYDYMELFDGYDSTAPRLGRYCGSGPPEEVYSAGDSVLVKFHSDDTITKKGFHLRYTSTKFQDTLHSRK
Format: cell-based, HT-1080
`COc1ccc(S(=O)(=O)N(Cc2ccc3c(c2)OCO3)[C@H](CNS(=O)(=O)Cc2cccc([N+](=O)[O-])c2)C(=O)NO)cc1` showed a pKi of 7.55. In the case of `COc1ccc(S(=O)(=O)N(Cc2ccc3c(c2)OCO3)[C@H](CNC(=O)c2ccccc2-n2cccc2)C(=O)NO)cc1`, the pKi was 8.10. `COc1ccc(S(=O)(=O)N(Cc2ccc3c(c2)OCO3)[C@H](CCNC(=O)CCc2nc3ccccc3[nH]2)C(=O)NO)cc1` gave a pKi of 6.39. Work on `COc1ccc(S(=O)(=O)N(Cc2ccc3c(c2)OCO3)[C@H](CCNC(=O)c2ccccc2-n2cccc2)C(=O)NO)cc1` yielded a pKi of 6.28. `COc1ccc(S(=O)(=O)N(Cc2ccc3c(c2)OCO3)[C@H](CCNC(=O)c2c(-c3ccccc3)noc2C)C(=O)NO)cc1` showed a pKi of 6.02. `COC(=O)c1ccc(C(=O)NCC[C@H](C(=O)NO)N(Cc2ccc3c(c2)OCO3)S(=O)(=O)c2ccc(OC)cc2)cc1` was tested, and the pKi was 6.08. Work on `COc1ccc(S(=O)(=O)N(Cc2ccc3c(c2)OCO3)[C@H](CNC(=O)c2ccccc2)C(=O)NO)cc1` yielded a pKi of 7.85. For `COc1ccc(S(=O)(=O)N(Cc2ccc3c(c2)OCO3)[C@H](CCNC(=O)c2cnoc2C)C(=O)NO)cc1`, the pKi was 7.07. `COc1ccc(S(=O)(=O)N(Cc2ccc3c(c2)OCO3)[C@H](CCCNC(=O)c2ccccc2)C(=O)NO)cc1` showed a pKi of 7.00. `COc1ccc(S(=O)(=O)N(Cc2ccc3c(c2)OCO3)[C@H](CNC(=O)CNc2cnccn2)C(=O)NO)cc1` showed a pKi of 6.60. For `COc1ccc(S(=O)(=O)N(Cc2ccc3c(c2)OCO3)[C@H](CNCc2ccc(NC(C)=O)cc2)C(=O)NO)cc1`, the pKi was 6.00. Work on `COc1ccc(S(=O)(=O)N(Cc2ccc3c(c2)OCO3)[C@H](CCNC(=O)CNc2cnccn2)C(=O)NO)cc1` yielded a pKi of 5.60. In the case of `COC(=O)c1ccc(C(=O)NC[C@H](C(=O)NO)N(Cc2ccc3c(c2)OCO3)S(=O)(=O)c2ccc(OC)cc2)cc1`, the pKi was 8.15. With `COc1ccc(S(=O)(=O)N(Cc2ccc3c(c2)OCO3)[C@H](CNC(=O)c2cnoc2C)C(=O)NO)cc1` the pKi was 5.71. Work on `CCOc1ccc(NC(=O)NC[C@H](C(=O)NO)N(Cc2ccc3c(c2)OCO3)S(=O)(=O)c2ccc(OC)cc2)cc1` yielded a pKi of 7.66. Work on `COc1ccc(S(=O)(=O)N(Cc2ccc3c(c2)OCO3)[C@H](CCNC(=O)c2ccccc2)C(=O)NO)cc1` yielded a pKi of 6.33. In the case of `CCOC(=O)C1CCC(NCC(=O)NCC[C@H](C(=O)NO)N(Cc2ccc3c(c2)OCO3)S(=O)(=O)c2ccc(OC)cc2)CC1` (some centres undefined), the pKi was 6.33. `COc1ccc(S(=O)(=O)N(Cc2ccc3c(c2)OCO3)[C@H](CCCCNC(=O)c2ccccc2)C(=O)NO)cc1` was tested, and the pKi was 6.46. `COc1ccc(S(=O)(=O)N(Cc2ccc3c(c2)OCO3)[C@H](CNC(=O)NS(=O)(=O)c2ccc(Cl)cc2)C(=O)NO)cc1` gave a pKi of 7.74.
